Measured values from patent US20080070987A1, “META-XYLYLENEDIAMINE VANADATE SALTS” (priority 2006, published 2008).

Columns and labels:
[1] = system: streptozotocin-induced diabetic rats; assay: Chronic oral treatment of streptozotocin-induced diabetic rats, glycemia; format: in vivo, rat; conditions: for glycemia: oral, after the dosage increase to 10 μmol/kg/day; for effect on glycemia over the whole oral treatment, in words: streptozotocin (45 mg/kg) diabetic rats, daily oral administration for 17 days
Protocol: FIG. 4 is a graphical illustration of the chronic and oral treatment with hexaquis(benzylammonium) decavanadate on glycemia of diabetic rats by estreptozotocine. In FIG. 4, [G] corresponds to the blood concentration of glucose (expressed in mg/dl) measured at different days of treatment (t/d). Diabetic rats were treated with a single daily oral dose of hexaquis(benzylammonium) decavanadate (5 μmol/kg/day between day 0 and day 7 marked with an arrow, and 10 μmol/kg/day from 7 days of treatment) (black squares) or with identical dose of sodium decavanadate (black diamonds). Glycemia in non-diabetic rats is also represented in the figure (black triangles).
Diabetes was induced in rats by intravenous administration of streptozotocin, and subsequently, a hexaquis(benzylammonium) decavanadate or sodium decavanadate unique dose was administered to the rats. […] After seven days of treatment, the dose was increased at 10 μmol/kg/day which was maintained for an additional ten days. […] Thus, glycemia in sodium decavanadate treated rats was approximately 450 mg/dl and glycemia of hexaquis(benzylammonium) decavanadate treated rats was approximately 250 mg/dl.
(§1) Male Wistar rats weighting 180-220 g were purchased from Harlan (Interfauna Ibérica S.A., Spain). Diabetes was induced by a single intraperitoneal injection of a freshly prepared solution of streptozotocin (in some studies the dose was 45 mg/kg body weight and in some others 100 mg/kg body weight dissolved in 50 mM citrate buffer, pH 4.5). Only diabetic animals with glycemia above 300 mg/dl were used. The animals were housed in animal quarters at 22° C. with a 12 h light/12 h dark cycle and were fed ad libitum. All procedures used were approved by the animal ethical committee of the University of Barcelona, Spain. Male mice C57 BL/Ks bearing the db/db mutation (Jackson Laboratories, Bar Harbor, Me.) were purchased from Harlan France (Gannat, France). C57BL/6J male mice were assigned for 16 weeks to very high-fat diet containing (in kcal): 72% from fat, 28% from proteins and <1% from carbohydrates (Burcelin et al., 2002, Am. J. Physiol. Endocrinol. Metab 282: E834-E842).
(§2) Osmotic minipumps delivering B6V10 (2.5 μmol/kg body wt/day) or decavanadate (2.5 μmol/kg body wt/day) were implanted subcutaneously in diabetic rats anaesthetised by ketamine hydrochloride (95 mg/kg) and xylasine (10 mg/kg). […] Glycemia was measured on arterio-venous blood collected from the tail vessels at 09:00 am for two weeks, before the administration of vanadate. Insulin concentrations were determined before and after treatment. In another set of experiments, B6V10 was orally administered at a single dose of 5 μmol/kg/day during the first week and 10 μmol/kg/day during 2 additional weeks by gastric gavage. A control group received the corresponding decavanadate salt in the absence of benzylamine. At the end of the treatment, animals were sacrificed and the liver, fat pad, heart and lung were kept at −80° C. and the plasma at −20° C. until their use for in vitro analysis.
(§3) In glucose tolerance tests and in chronic treatments, circulating glucose concentrations were determined by a rapid glucose analyser (Accutrend® Sensor Comfort, Roche, Basel. Switzerland). Plasma insulin (IRI) concentration was determined by ELISA method using a kit obtained from Crystal Chem. Inc. (Downers Grove, Ill.). Plasma triglycerides (Biosystems, Barcelona, Spain) and NEFAS (Wako Chemicals, Neuss, Germany) were determined with standard […] methods.
Chronic in vivo efficacy of B6V10 was evaluated in streptozotocin-induced diabetic rats and in db/db mice. Streptozotocin-induced (45 mg/kg) diabetic rats were subcutaneously treated with hexaquis(benzylammonium) decavanadate (2.5 μmol/kg) (B6V10, solid squares, FIG. 8A) or with decavanadate (2.5 μmol/kg) (V10, open circles, FIG. 8A) delivered subcutaneously by osmotic minipumps implanted in the dorsal region. Diabetic rats were also sham-operated (untreated, solid diamonds, FIG. 8A). […]

[2] = system: streptozotocin-induced diabetic rats; format: in vivo, rat; conditions: for effect on glycemia / circulating glucose, in words: 2.5 μmol/kg subcutaneous minipumps
Protocol: as §1, §2, §3
To this end, rats were made diabetic by the injection of a large dose of streptozotocin (100 mg/kg) that eliminates β-pancreatic insulin content. […] These streptozotocin-induced diabetic rats were subcutaneously treated with B6V10 (2.5 μmol/kg) (solid squares, FIG. 9A) delivered by osmotic minipumps or left untreated (solid circles, FIG. 9A). Sham-operated nondiabetic rats were also untreated (solid triangles, FIG. 9A).
The concentration of circulating glucose under these conditions was also assayed. After 28 days of treating diabetic rats with hexaquis(benzylammonium) decavanadate (2.5 μmol/kg) (wide striped bars, FIG. 9B), or with decavanadate (close striped bars, FIG. 9B) delivered by osmotic minipumps, plasma insulin and glucose were measured. Untreated diabetic (solid bars, FIG. 9B) or nondiabetic rats (open bars, FIG. 9B) were similarly assayed as controls.

[3] = streptozotocin 100 mg/kg, 2.5 μmol/kg minipumps, 28 days

Substance | time at which decrease of hyperglycemia was detected ([1]; oral 5 μmol/kg/day) | effect on hyperglycemia, in words ([1]; oral 5 μmol/kg/day for seven days) | effect of the dosage increase on glycemia, in words ([1]; oral 10 μmol/kg/day for an additional ten days after seven days at 5 μmol/kg/day) | glycemia [1] | effect on glycemia over the whole oral treatment, in words [1] | effect on body weight or organ weights ([2]; rat, in vivo) | plasma glucose after 28 days of treatment [2, 3] | plasma insulin after 28 days of treatment [2, 3] | effect on glycemia / circulating glucose, in words ([2]; streptozotocin 100 mg/kg) | effect on glycemia over the whole oral treatment, in words ([1]; listed as sodium decavanadate)
hexaquis(benzylammonium) decavanadate [Example B6V10] | after but two days of treatment | moderate decrease of hyperglycemia | additional decrease in glycemia | approximately 250 mg/dl | significant correction of hyperglycemia | did not affect body weight or organ weights | plasma glucose was reduced | without any observable change in the amount of insulin | reducing glycemia | 
sodium decavanadate [Example V10, reference compound] |  |  |  | approximately 450 mg/dl | did not alter glycemia |  |  |  | did not show any change in circulating glucose | not affected substantially
